The target in the assay is T1, human beta-3-adrenergic receptor (Homo sapiens, UniProt P13945).
T1 construct: stably express full-length human beta-3-adrenergic receptor; expressed in transfected cells; host or cells: Chinese hamster ovary (CHO) cells
The assay can be described thus: cAMP production (beta-3 agonist activity) in CHO cells stably expressing human beta-3-adrenergic receptor, cAMP SPA. Format: cell-based. The following applies: CHO cells expressing full-length human beta-3-adrenergic receptor, 30 min incubation, 10 μM to 3 nM. The protocol: Chinese hamster ovary (CHO) cells that stably express full-length human beta-3-adrenergic receptor (Granneman et al., Mol. Pharmacol. 44:264-270, 1993) can be used in the following procedure. The cell line is grown in 90% F12 nutrient mixture (HAM), 10% fetal bovine serum, 100 units/ml penicillin G sodium, […] streptomycin sulfate, and 2 mM L-glutamine at 37° C. in 95% air and 5% CO2. The transfected cell line is maintained with G-418 (800 μg/ml).
To test the agonist activity, cells are exposed to test compound and then assayed for cAMP production. CHO cells (100 μl) are plated at 5×10^4 cells/well of a 96-well plate (Costar, Cambridge, Mass.) to achieve 70% confluency the next day. After overnight incubation at 37° C., media is removed and the cells are treated for 30 minutes at 37° C. with KRP buffer (120 mM NaCl, 5.1 mM KCl, 0.6 mM MgSO4.7H2O, 0.8 mM CaCl2.H2O, […] phosphate buffer, […] Hepes pH 7.4)+[…] IBMX ([…]), +1% DMSO, +/− test compounds ([…]). Test compounds are assayed from 10 μM to 3 nM with 3-fold serial dilutions. The control agonist, isoproterenol (10 mM stock in 1.1 mM ascorbate), is assayed by 3-fold dilution beginning at 1 μM. After a 30-minute incubation with the test compounds, the buffer/compound mixture is removed. The cells are lysed and cAMP levels are measured using the cAMP SPA screening assay system (Amersham, Arlington Heights, Ill.). The cAMP values are then plotted to determine the EC50 of each compound tested.
In general terms: Changes in cAMP serve as a functional read-out for many G protein-coupled receptors.

The mark [1] stands for this setting: read-out: Beta-3 Agonistic Activity: Compounds with EC50 values ≦1 μM.
[2] abbreviates: read-out: Beta-3 Agonistic Activity: Compounds with EC50 values >1 μM.

Where a name gives a salt, the structure may show the parent alone. Read-outs that look alike come from different tables or passages of the source.

T1 sequence (P13945 whole entry): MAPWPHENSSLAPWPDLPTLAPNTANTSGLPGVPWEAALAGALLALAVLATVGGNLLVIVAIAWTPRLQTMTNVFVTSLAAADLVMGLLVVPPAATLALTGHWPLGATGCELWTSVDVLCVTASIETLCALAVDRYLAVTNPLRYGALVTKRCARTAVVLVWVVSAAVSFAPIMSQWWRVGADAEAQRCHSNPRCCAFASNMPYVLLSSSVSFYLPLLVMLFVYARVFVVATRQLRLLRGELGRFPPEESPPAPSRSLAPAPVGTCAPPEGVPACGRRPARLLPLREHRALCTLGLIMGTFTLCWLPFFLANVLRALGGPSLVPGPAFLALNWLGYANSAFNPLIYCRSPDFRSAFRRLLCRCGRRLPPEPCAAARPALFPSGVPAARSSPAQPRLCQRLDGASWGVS

Usually EC50 stands for the concentration that produces a half-maximal response. Turning to `O=S(=O)(Nc1cccnc1)c1ccc(-c2ccc3c(c2)CC[C@H](CNC[C@H](O)c2cccnc2)O3)cc1` [Example 253, 4-[(2R)-2-({[(2R)-2-hydroxy-2-(3-pyridinyl)ethyl]amino}methyl)-3,4-dihydro-2H-chromen-6-yl]-N-(3-pyridinyl)benzenesulfonamide], under setting [1], the EC50 is at most 1000 nM. Still for that read-out and setting: the same measure for `Nc1ccc([C@@H](O)CNC[C@H]2CCc3cc(-c4ccc(-c5nnn[nH]5)cc4)ccc3O2)cn1` [Example 384, (1R)-1-(6-amino-3-pyridinyl)-2-[({(2R)-6-[4-(1H-tetraazol-5-yl)phenyl]-3,4-dihydro-2H-chromen-2-yl}methyl)amino]ethanol]: at most 1000 nM; for `COc1cc(-c2ccc3c(c2)CC[C@H](CNC[C@H](O)c2cccnc2)O3)ccc1C(=O)O` [Example 184, 4-[(2R)-2-({[(2R)-2-hydroxy-2-(3-pyridinyl)ethyl]amino}methyl)-3,4-dihydro-2H-chromen-6-yl]-2-methoxybenzoic acid]: at most 1000 nM. Same read-out and setting: the same measure for `COc1cc(OC)nc(NS(=O)(=O)c2ccc(-c3ccc4c(c3)CC[C@H](CNC[C@H](O)c3cccnc3)O4)cc2OC(F)(F)F)n1` [Example 274, N-(4,6-dimethoxy-2-pyrimidinyl)-4-[(2R)-2-({[(2R)-2-hydroxy-2-(3-pyridinyl)ethyl]amino}methyl)-3,4-dihydro-2H-chromen-6-yl]-2-(trifluoromethoxy)benzenesulfonamide]: at most 1000 nM; for `O=C(NS(=O)(=O)c1ccc(-c2ccc3c(c2)CC[C@H](CNC[C@H](O)c2cccnc2)O3)cc1)c1ccccc1` [Example 294, N-benzoyl-4-[(2R)-2-({[(2R)-2-hydroxy-2-(3-pyridinyl)ethyl]amino}methyl)-3,4-dihydro-2H-chromen-6-yl]benzenesulfonamide]: at most 1000 nM; for `O=C(Nc1ccccc1)NS(=O)(=O)c1cccc(-c2ccc3c(c2)CC[C@H](CNC[C@H](O)c2cccnc2)O3)c1` [Example 332]: at most 1000 nM.

With `COc1ccc(Oc2cc(-c3ccc4c(c3)CC[C@H](CNC[C@H](O)c3cccnc3)O4)ccc2C(=O)O)cc1` [Example 196, 4-[(2R)-2-({[(2R)-2-hydroxy-2-(3-pyridinyl)ethyl]amino}methyl)-3,4-dihydro-2H-chromen-6-yl]-2-(4-methoxyphenoxy)benzoic acid], the half-maximal effective concentration (EC50) under setting [1] is at most 1000 nM.

As for `CC(C)NC(=O)NS(=O)(=O)c1ccc(-c2ccc3c(c2)CC[C@H](CNC[C@H](O)c2cccnc2)O3)cc1` [Example 339], the EC50 under setting [1] was at most 1000 nM. With `O=S(=O)(Nc1nccs1)c1ccc(-c2ccc3c(c2)CC[C@H](CNC[C@H](O)c2cccnc2)O3)cc1` [Example 265, 4-[(2R)-2-({[(2R)-2-hydroxy-2-(3-pyridinyl)ethyl]amino}methyl)-3,4-dihydro-2H-chromen-6-yl]-N-(1,3-thiazol-2-yl)benzenesulfonamide], the EC50 under setting [1] is at most 1000 nM.

Consider `COc1cccc(C(=O)NS(=O)(=O)c2cccc(-c3ccc4c(c3)CC[C@H](CNC[C@H](O)c3cccnc3)O4)c2)c1` [Example 298], for which the EC50 under setting [1] is at most 1000 nM. On to `CS(=O)(=O)Nc1ccc(-c2ccc3c(c2)CC[C@H](CNC[C@H](O)c2cccnc2)O3)nc1` [Example 321, N-{6-[(2R)-2-({[(2R)-2-hydroxy-2-(3-pyridinyl)ethyl]amino}methyl)-3,4-dihydro-2H-chromen-6-yl]-3-pyridinyl}methanesulfonamide], for which, under setting [1], the EC50 was at most 1000 nM.

On to `O=C(Nc1ccccc1)NS(=O)(=O)c1ccc(-c2ccc3c(c2)CC[C@H](CNC[C@H](O)c2cccnc2)O3)cc1` [Example 328, 3-[(1R)-2-({[(2R)-6-(4-{[(anilinocarbonyl)amino]sulfonyl}phenyl)-3,4-dihydro-2H-chromen-2-yl]methyl}amino)-1-hydroxyethyl]pyridine], for which, under setting [1], the EC50 was at most 1000 nM. In the case of `N#Cc1cc([N+](=O)[O-])ccc1NS(=O)(=O)c1cccc(-c2ccc3c(c2)CC[C@H](CNC[C@H](O)c2cccnc2)O3)c1` [Example 259, N-(2-cyano-4-nitrophenyl)-3-[(2R)-2-({[(2R)-2-hydroxy-2-(3-pyridinyl)ethyl]amino}methyl)-3,4-dihydro-2H-chromen-6-yl]benzenesulfonamide], under setting [1], the EC50 is at most 1000 nM. Same read-out and setting: the result for `Cc1ccc(Oc2cc(-c3ccc4c(c3)CC[C@H](CNC[C@H](O)c3cccnc3)O4)ccc2C(=O)O)cc1` [Example 195, 4-[(2R)-2-({[(2R)-2-hydroxy-2-(3-pyridinyl)ethyl]amino}methyl)-3,4-dihydro-2H-chromen-6-yl]-2-(4-methylphenoxy)benzoic acid] reads at most 1000 nM. For the molecule `COc1ccc(C(=O)NS(=O)(=O)c2ccc(-c3ccc4c(c3)CC[C@H](CNC[C@H](O)c3cccnc3)O4)cc2)cc1` [Example 300, 4-[(2R)-2-({[(2R)-2-hydroxy-2-(3-pyridinyl)ethyl]amino}methyl)-3,4-dihydro-2H-chromen-6-yl]-N-(4-methoxybenzoyl)benzenesulfonamide], under setting [1], the EC50 is at most 1000 nM. The same measure, in the same setting: the result for `Cc1cc(Cl)ccc1NC(=O)NS(=O)(=O)c1ccc(-c2ccc3c(c2)CC[C@H](CNC[C@H](O)c2cccnc2)O3)cc1` [Example 330, 3-((1R)-2-{[((2R)-6-{4-[({[(4-chloro-2-methylphenyl)amino]carbonyl}amino)sulfonyl]phenyl}-3,4-dihydro-2H-chromen-2-yl)methyl]amino}-1-hydroxyethyl)pyridine] reads at most 1000 nM; that for `O=C(NS(=O)(=O)c1cccc(-c2ccc3c(c2)CC[C@H](CNC[C@H](O)c2cccnc2)O3)c1)c1cccc(Cl)c1` [Example 302], at most 1000 nM; that for `O=C1CCc2cc(NS(=O)(=O)c3cccc(-c4ccc5c(c4)CC[C@H](CNC[C@H](O)c4cccnc4)O5)c3)ccc21` [Example 255], at most 1000 nM. The same measure, in the same setting: the result for `O=C(O)c1ccc(-c2ccc3c(c2)CC[C@H](CNC[C@H](O)c2cccnc2)O3)cc1Oc1ccc(Cl)cc1` [Example 194, 2-(4-chlorophenoxy)-4-[(2R)-2-({[(2R)-2-hydroxy-2-(3-pyridinyl)ethyl]amino}methyl)-3,4-dihydro-2H-chromen-6-yl]benzoic acid] reads at most 1000 nM.

For the molecule `O=C(NS(=O)(=O)c1ccc(-c2ccc3c(c2)CC[C@H](CNC[C@H](O)c2cccnc2)O3)cc1)C(C(F)(F)F)C(F)(F)F` [Example 288], under setting [1], the EC50 is at most 1000 nM.

For the molecule `COc1ccc(-c2ccc3c(c2)CCC(CNC[C@H](O)c2cccnc2)O3)cc1S(=O)(=O)Nc1ccc(C#N)cc1` (stereo partly shown) [Example 277], the EC50 under setting [1] was at most 1000 nM.

`O=S(=O)(Nc1ccc(-c2ccc3c(c2)CC[C@H](CNC[C@H](O)c2cccnc2)O3)nc1)c1ccccc1` [Example 319, N-{6-[(2R)-2-({[(2R)-2-hydroxy-2-(3-pyridinyl)ethyl]amino}methyl)-3,4-dihydro-2H-chromen-6-yl]-3-pyridinyl}benzenesulfonamide Trihydrochloride]: the EC50 under setting [1] is at most 1000 nM. Same read-out and setting: the result for `O=C(Nc1cccc(C(F)(F)F)c1)NS(=O)(=O)c1cccc(-c2ccc3c(c2)CC[C@H](CNC[C@H](O)c2cccnc2)O3)c1` [Example 337] reads at most 1000 nM. In the case of `O[C@@H](CNC[C@H]1CCc2cc(-c3cccc(Cl)c3)ccc2O1)c1cccnc1` [Example 41], the EC50 under setting [2] was over 1000 nM. For the molecule `Nc1ccc([C@@H](O)CNC[C@H]2CCc3cc(-c4ccc(C(=O)O)cc4)ccc3O2)cn1` [Example 385, 4-[(2R)-2-({[(2R)-2-(6-amino-3-pyridinyl)-2-hydroxyethyl]amino}methyl)-3,4-dihydro-2H-chromen-6-yl]benzoic Acid], under setting [1], the EC50 is at most 1000 nM.

Regarding `O=C(CS(=O)(=O)c1ccccc1)c1ccc(-c2ccc3c(c2)CC[C@H](CNC[C@H](O)c2cccnc2)O3)cc1` [Example 308, 1-{4-[(2R)-2-({[(2R)-2-hydroxy-2-(3-pyridinyl)ethyl]amino}methyl)-3,4-dihydro-2H-chromen-6-yl]phenyl}-2-(phenylsulfonyl)ethanone Dihydrochloride], the EC50 under setting [1] was at most 1000 nM. Regarding `COc1ccc([C@H](O)CNC[C@H]2CCc3cc(-c4ccc(C(=O)O)cc4)ccc3O2)cn1` [Example 343], the EC50 under setting [1] is at most 1000 nM.

On to `COc1cccc(-c2ccc3c(c2)CC[C@H](CNC[C@H](O)c2cccnc2)O3)c1` [Example 43], for which the EC50 under setting [2] was over 1000 nM.

As for `COC(=O)c1ccc(-c2ccc3c(c2)CC[C@H](CNC[C@H](O)c2ccc(N)nc2)O3)cc1` [Example 381], under setting [1], the EC50 is at most 1000 nM. As to `Nc1ccc([C@@H](O)CNC[C@H]2CCc3cc(C(=O)N(CC(=O)O)Cc4ccccn4)ccc3O2)cn1` [Example 365], the EC50 under setting [2] was over 1000 nM. For the molecule `CC(C)(C)C(=O)NS(=O)(=O)c1ccc(-c2ccc3c(c2)CC[C@H](CNC[C@H](O)c2cccnc2)O3)cc1` [Example 292, N-(2,2-dimethylpropanoyl)-4-[(2R)-2-({[(2R)-2-hydroxy-2-(3-pyridinyl)ethyl]amino}methyl)-3,4-dihydro-2H-chromen-6-yl]benzenesulfonamide], under setting [1], the EC50 is at most 1000 nM.

Source of the values: US6660752B2, “2,6-Substituted chroman derivatives useful as beta-3 adrenoreceptor agonists” (Bayer Pharmaceuticals Corporation, priority 2001, dated 2003).
